Assay results: patent publication US8946282B2, “Indolin-2-one derivatives as protein kinase inhibitors” (Annji Pharmaceutical Co., Ltd., priority 2012, dated 2015)

Tests used:
aurora B = aurora B (Homo sapiens, UniProt Q96GD4); experiment: radioisotope-based P81 filter-binding assay, aurora B kinase; type: biochemical; conditions: for IC50: averaged from two independent dose-response curves, read-out: Enzyme assay IC50 Aur B
Procedure: (§1) Compounds of formula (I)-(IV) were evaluated for abilities in inhibiting protein kinases aurora B and FLT-3 activity using radioisotope-based P81 filter-binding assay (Table 1).

[1] = test system: HepG2 human hepatocellular carcinoma cells; experiment: anti-proliferation, SRB colorimetric assay, HepG2; type: cell-based; conditions: concentration required for 50% growth inhibition, read-out: IC50 (μM, mean ± S.D.)
From the text: HCT116 human colorectal carcinoma cells (Table 3), HepG2 human hepatocellular carcinoma cells (Table 4), and MV4-11 human acute myelomonocytic leukemia cells (Table 5).

[2] = test system: A549 human lung carcinoma cells; experiment: anti-proliferation, SRB colorimetric assay, A549; type: cell-based; conditions: concentration required for 50% growth inhibition, read-out: IC50 (μM, mean ± S.D.)
[3] = test system: HCT116 human colorectal carcinoma cells; experiment: anti-proliferation, SRB colorimetric assay, HCT116; type: cell-based; conditions: HCT-116, concentration required for 50% growth inhibition, read-out: IC50 (μM, mean ± S.D.)
Procedure: (§2) HCT116 human colorectal carcinoma cells (Table 3), HepG2 human hepatocellular carcinoma cells (Table 4), and MV4-11 human acute myelomonocytic leukemia cells (Table 5). Cells were treated with the test compound and the concentration required for 50% growth inhibition (IC50) determined by sulfomodamine B (SRB) colorimetric assay.

FLT-3 = biological target: T1, FLT-3 (Homo sapiens, UniProt P36888); experiment: radioisotope-based P81 filter-binding assay, FLT-3 kinase; type: biochemical; conditions: averaged from two independent dose-response curves; read-out: Enzyme assay IC50 FLT-3
T1 sequence (P36888 27-993): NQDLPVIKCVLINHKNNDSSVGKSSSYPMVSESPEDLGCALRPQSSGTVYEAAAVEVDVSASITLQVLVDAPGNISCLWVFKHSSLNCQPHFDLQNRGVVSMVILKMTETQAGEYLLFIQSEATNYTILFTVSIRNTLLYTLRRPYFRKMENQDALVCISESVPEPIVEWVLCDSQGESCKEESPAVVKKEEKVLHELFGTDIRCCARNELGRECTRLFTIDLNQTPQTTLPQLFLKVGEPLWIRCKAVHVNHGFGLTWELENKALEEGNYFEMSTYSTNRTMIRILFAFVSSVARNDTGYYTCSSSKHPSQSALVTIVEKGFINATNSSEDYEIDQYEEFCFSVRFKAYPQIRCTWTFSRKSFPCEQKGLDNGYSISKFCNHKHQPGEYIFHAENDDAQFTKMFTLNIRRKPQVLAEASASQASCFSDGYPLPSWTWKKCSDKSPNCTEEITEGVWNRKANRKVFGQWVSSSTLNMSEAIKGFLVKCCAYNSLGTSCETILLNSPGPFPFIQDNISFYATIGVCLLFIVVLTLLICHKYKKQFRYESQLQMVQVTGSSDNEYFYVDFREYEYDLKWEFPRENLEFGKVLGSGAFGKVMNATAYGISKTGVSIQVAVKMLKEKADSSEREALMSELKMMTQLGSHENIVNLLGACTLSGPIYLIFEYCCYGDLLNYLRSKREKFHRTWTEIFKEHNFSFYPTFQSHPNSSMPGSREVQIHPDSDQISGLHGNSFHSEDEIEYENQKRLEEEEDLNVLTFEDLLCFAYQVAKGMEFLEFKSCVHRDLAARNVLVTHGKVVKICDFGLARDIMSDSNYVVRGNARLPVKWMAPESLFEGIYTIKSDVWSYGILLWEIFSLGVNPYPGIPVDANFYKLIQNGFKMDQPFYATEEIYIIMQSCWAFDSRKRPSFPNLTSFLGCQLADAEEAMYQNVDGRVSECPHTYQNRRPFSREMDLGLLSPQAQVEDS
Procedure: as §1

[4] = test system: MV4-11 human acute myelomonocytic leukemia cells; experiment: anti-proliferation, SRB colorimetric assay, MV4-11; type: cell-based; conditions: concentration required for 50% growth inhibition
Procedure: as §2

Sequence of aurora B (Q96GD4 whole entry): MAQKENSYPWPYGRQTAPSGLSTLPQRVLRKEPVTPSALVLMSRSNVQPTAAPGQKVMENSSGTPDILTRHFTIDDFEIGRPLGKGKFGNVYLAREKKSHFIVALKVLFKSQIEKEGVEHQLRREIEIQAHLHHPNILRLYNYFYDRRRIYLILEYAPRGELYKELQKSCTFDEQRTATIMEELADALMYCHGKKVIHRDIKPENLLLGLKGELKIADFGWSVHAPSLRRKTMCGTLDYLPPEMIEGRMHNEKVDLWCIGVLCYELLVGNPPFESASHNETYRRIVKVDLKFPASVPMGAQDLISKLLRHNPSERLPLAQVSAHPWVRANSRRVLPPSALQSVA

Row | Compound | melting point | IC50 (aurora B) | IC50 [1] | IC50 [2] | IC50 [3] | IC50 (FLT-3) | IC50 [4] | inhibition at 1 µM (aurora B; compound at 1.0 μM, mean values (n=2), read-out: percent inhibition of enzyme catalytic activity, Aur B (numbers in parentheses))
1 | Cc1[nH]c(/C=C2\C(=O)Nc3cc(NC(=O)NC(=O)c4ccc(F)cc4F)ccc32)c(C)c1CCC(=O)O [D56, (Z)-3-(5-((6-(3-(2,4-difluorobenzoyl)ureido]-2-oxoindolin-3-ylidene)methyl)-2,4-dimethyl-1H-pyrrol-3-yl)propanoic acid] | 280 to 285 °C (dec.) | 2.1 nM | 0.13 ± 0.06 µM | 0.1 ± 0.01 µM | 0.32 ± 0.07 µM | 2.7 nM | – | –
2 | Cc1[nH]c(/C=C2\C(=O)Nc3cc(NC(=O)NC(=O)c4ccc(F)cc4)ccc32)c(C)c1CCC(=O)O [D55, (Z)-3-(5-((6-(3-(4-fluorobenzoyl)ureido)-2-oxoindolin-3-ylidene)methyl)-2,4-dimethyl-1H-pyrrol-3-yl)propanoic acid] | > 300 °C | 1.8 nM | 0.21 ± 0.02 µM | 0.08 ± 0.01 µM | 0.45 ± 0.02 µM | 45.7 nM | – | –
3 | COc1ccc(C(=O)NC(=O)Nc2ccc3c(c2)NC(=O)/C3=C\c2[nH]c(C)c(C(=O)NCCN(C)C)c2C)c(F)c1 [D68] | – | 10.5 nM | 0.74 ± 0.07 µM | 0.47 ± 0.01 µM | 0.87 ± 0.06 µM | 16.2 nM | – | –
4 | COc1ccc(-c2c[nH]cc(C(=O)Nc3ccc4c(c3)NC(=O)/C4=C\c3ccc[nH]3)c2=O)cc1 [D128, (Z)—N-(3-((1H-pyrrol-2-yl)methylene)-2-oxoindolin-6-yl)-5-(4-methoxyphenyl)-4-oxo-1,4-dihydropyridine-3-carboxamide] | > 300 °C | 10.2 nM | 0.81 ± 0.04 µM | 0.62 ± 0.06 µM | 0.63 ± 0.09 µM | 24.9 nM | 25 nM | –
5 | CCN(CC)CCNC(=O)c1c(C)[nH]c(/C=C2\C(=O)Nc3cc(NC(=O)NC(=O)c4ccc(OC)cc4F)ccc32)c1C [D69, (Z)—N-(2-(diethylamino)ethyl)-5-((6-(3-(2-fluoro-4-methoxybenzoyl)ureido)-2-oxoindolin-3-ylidene)methyl)-2,4-dimethyl-1H-pyrrole-3-carboxamide] | 275 to 280 °C (dec.) | 7.6 nM | 0.88 ± 0.04 µM | 0.46 ± 0.07 µM | 0.91 ± 0.01 µM | 4.4 nM | – | –
6 | O=C1Nc2cc(NC(=O)c3c[nH]cc(-c4cccc(Cl)c4)c3=O)ccc2/C1=C/c1ccc[nH]1 [D132, (Z)—N-(3-((1H-pyrrol-2-yl)methylene)-2-oxoindolin-6-yl)-5-(3-chlorophenyl)-4-oxo-1,4-dihydropyridine-3-carboxamide] | > 300 °C | 161 nM | 0.55 ± 0.03 µM | 0.5 ± 0.01 µM | 0.63 ± 0.03 µM | 148 nM | 9.1 nM | –
7 | Cc1[nH]c(/C=C2\C(=O)Nc3cc(NC(=O)NC(=O)c4ccccc4F)ccc32)c(C)c1CCC(=O)O [D54, (Z)-3-(5-((6-(3-(2-fluorobenzoyl)ureido)-2-oxoindolin-3-ylidene)methyl)-2,4-dimethyl-1H-pyrrol-3-yl)propanoic acid] | 267 to 272 °C (dec.) | 1.5 nM | 0.47 ± 0.1 µM | 0.11 ± 0.01 µM | 0.97 ± 0.21 µM | 12.4 nM | – | –
8 | COc1ccc(C(=O)NC(=O)Nc2ccc3c(c2)NC(=O)/C3=C\c2[nH]c(C)c(C(=O)NCCN3CCCC3)c2C)c(F)c1 [D70, (Z)-5-((6-(3-(2-fluoro-4-methoxybenzoyl)ureido)-2-oxoindolin-3-ylidene)methyl)-2,4-dimethyl-N-(2-(pyrrolidin-1-yl)ethyl)-1H-pyrrole-3-carboxamide] | – | 0.4 nM | 0.68 ± 0.03 µM | 0.56 ± 0.05 µM | 0.85 ± 0.08 µM | 0.5 nM | – | –
9 | O=C1Nc2cc(NC(=O)c3cccn(-c4ccc(Cl)c(Cl)c4)c3=O)ccc2/C1=C/c1ccc[nH]1 [D110, (Z)—N-(3-((1H-pyrrol-2-yl)methylene)-2-oxoindolin-6-yl)-1-(3,4-dichlorophenyl)-2-oxo-1,2-dihydropyridine-3-carboxamide] | – | > 1000 nM | 0.82 ± 0.03 µM | – | 0.85 ± 0.13 µM | 59.9 nM | 2.4 nM | –
10 | O=C1Nc2cc(NC(=O)c3c[nH]cc(-c4cc(F)cc(F)c4)c3=O)ccc2/C1=C/c1ccc[nH]1 [D136, (Z)—N-(3-((1H-pyrrol-2-yl)methylene)-2-oxoindolin-6-yl)-4-oxo-5-(3,5-difluorophenyl)-1,4-dihydropyridine-3-carboxamide] | > 300 °C | 123 nM | 0.6 µM | 0.6 µM | 0.6 µM | > 1000 nM | – | –
11 | COc1ccc(C(=O)NC(=O)Nc2ccc3c(c2)/C(=C/c2ccc[nH]2)C(=O)N3)cc1 [D14, (Z)—N-(3-((1H-pyrrol-2-yl)methylene)-2-oxoindolin-5-ylcarbamoyl)-4-methoxybenzamide] | 285 to 290 °C (dec.) | – | 0.64 ± 0.01 µM | 0.73 ± 0.02 µM | – | 201 nM | 0.07 nM | 39.3%
12 | O=C1Nc2cc(NC(=O)c3c[nH]cc(-c4ccc(Cl)cc4)c3=O)ccc2/C1=C/c1ccc[nH]1 [D130, (Z)—N-(3-((1H-pyrrol-2-yl)methylene)-2-oxoindolin-6-yl)-5-(4-chlorophenyl)-4-oxo-1,4-dihydropyridine-3-carboxamide] | > 300 °C | 53.8 nM | 0.67 ± 0.05 µM | < 0.1 µM | 0.57 ± 0.04 µM | 7.6 nM | 4.38 nM | –
13 | Cc1ccc(C(=O)NC(=O)Nc2ccc3c(c2)NC(=O)/C3=C\c2[nH]c(C)c(C(=O)O)c2C)cc1 [D39, (Z)-2,4-dimethyl-5-((6-(3-(4-methylbenzoyl)ureido)-2-oxoindolin-3-ylidene)-methyl)-1H-pyrrole-3-carboxylic acid] | 295 to 300 °C (dec.) | 2.5 nM | 0.63 ± 0.21 µM | 0.77 ± 0.11 µM | – | 265 nM | 7.21 nM | –
14 | Cc1[nH]c(/C=C2\C(=O)Nc3cc(NC(=O)c4c[nH]cc(-c5ccc(F)cc5)c4=O)ccc32)c(C)c1CC(=O)N1CCN(C)CC1 [D150, (Z)—N-(3-((3,5-dimethyl-4-(2-(4-methylpiperazin-1-yl)-2-oxoethyl)-1H-pyrrol-2-yl)methylene)-2-oxoindolin-6-yl)-5-(4-fluorophenyl)-4-oxo-1,4-dihydropyridine-3-carboxamide] | > 300 °C | 91.6 nM | 0.7 ± 0.07 µM | 0.57 ± 0.04 µM | – | 10.3 nM | 0.1 nM | –
15 | Cc1[nH]c(/C=C2\C(=O)Nc3cc(NC(=O)NC(=O)c4ccccc4F)ccc32)c(C)c1C(=O)O [D53, (Z)-5-((6-(3-(2-fluorobenzoyl)ureido)-2-oxoindolin-3-ylidene)methyl)-2,4-dimethyl-1H-pyrrole-3-carboxylic acid] | 264 to 269 °C (dec.) | 3.7 nM | 0.85 ± 0.11 µM | 0.63 ± 0.08 µM | – | 508 nM | 8.07 nM | –
16 | Cc1[nH]c(/C=C2\C(=O)Nc3cc(NC(=O)c4c[nH]cc(-c5ccc(F)cc5)c4=O)ccc32)c(C)c1CCC(=O)N1CCN(C)CC1 [D151, (Z)—N-(3-((3,5-dimethyl-4-(3-(4-methylpiperazin-1-yl)-3-oxopropyl)-1H-pyrrol-2-yl)methylene)-2-oxoindolin-6-yl)-5-(4-fluorophenyl)-4-oxo-1,4-dihydropyridine-3-carboxamide] | 250 °C | 107 nM | 0.88 ± 0.13 µM | 0.66 ± 0.07 µM | – | 4.8 nM | 0.34 nM | –
